Laboratory results from ChEMBL document CHEMBL3217603, “Synthesis and NMDA receptor affinity of dexoxadrol analogues with modifications in position 4 of the piperidine ring” (Medchemcomm, 2010).
pKi: −log10 of the molar value.

Columns and labels:
Sus scrofa = species on record: Sus scrofa; experiment: Displacement of [3H]-(+)-MK801 from pig brain phencyclidine binding site of NMDA receptor at 1 uM by scintillation counting
[1] = test system: Sigma-2 receptor (Rattus norvegicus); experiment: Displacement of [3H]-di-o-tolylguanidine from sigma-2 receptor in rat liver homogenate at 1 uM by liquid scintillation counting
[2] = target: Sigma-2 receptor (Rattus norvegicus); experiment: Displacement of [3H]-di-o-tolylguanidine from sigma-2 receptor in rat liver homogenate by liquid scintillation counting
[3] = Displacement of [3H]-(+)-MK801 from pig brain phencyclidine binding site of NMDA receptor by scintillation counting; set-up: species or system Sus scrofa

Structure (SMILES)	inhibition (Sus scrofa)	inhibition [1]	Ki [2]	pKi [3]
CN[C@@H]1CCN(C(=O)OCc2ccccc2)[C@H]([C@H]2COC(c3ccccc3)(c3ccccc3)O2)C1 (racemic)	10%	42%	–	–
O=C1CCN[C@H]([C@@H]2COC(c3ccccc3)(c3ccccc3)O2)C1 (racemic)	84%	–	–	–
CO[C@H]1CCN[C@H]([C@@H]2COC(c3ccccc3)(c3ccccc3)O2)C1 (racemic)	21%	23%	–	–
N[C@@H]1CCN[C@H]([C@H]2COC(c3ccccc3)(c3ccccc3)O2)C1 (racemic)	44%	26%	–	–
N[C@H]1CCN[C@H]([C@H]2COC(c3ccccc3)(c3ccccc3)O2)C1 (racemic)	17%	17%	–	–
CN[C@@H]1CCN[C@H]([C@H]2COC(c3ccccc3)(c3ccccc3)O2)C1 (racemic)	40%	12%	–	–
CN[C@H]1CCN[C@H]([C@@H]2COC(c3ccccc3)(c3ccccc3)O2)C1 (racemic)	16%	–	3670 nM	–
O[C@@H]1CCN[C@H]([C@H]2COC(c3ccccc3)(c3ccccc3)O2)C1 (racemic)	–	2%	–	6.28
O=C(OCc1ccccc1)N1CC[C@@H](NCc2ccccc2)C[C@H]1[C@@H]1COC(c2ccccc2)(c2ccccc2)O1 (racemic)	8%	23%	–	–
CN[C@@H]1CCN[C@H]([C@@H]2COC(c3ccccc3)(c3ccccc3)O2)C1 (racemic)	16%	44%	–	–
O=C(OCc1ccccc1)N1CC[C@@H](NCc2ccccc2)C[C@H]1[C@H]1COC(c2ccccc2)(c2ccccc2)O1 (racemic)	20%	14%	–	–
O=C(OCc1ccccc1)N1CC[C@H](NCc2ccccc2)C[C@H]1[C@H]1COC(c2ccccc2)(c2ccccc2)O1 (racemic)	15%	8%	–	–
CN[C@H]1CCN(C(=O)OCc2ccccc2)[C@H]([C@@H]2COC(c3ccccc3)(c3ccccc3)O2)C1 (racemic)	7%	18%	–	–
N[C@H]1CCN[C@H]([C@@H]2COC(c3ccccc3)(c3ccccc3)O2)C1 (racemic)	25%	13%	–	–
O[C@H]1CCN[C@H]([C@@H]2COC(c3ccccc3)(c3ccccc3)O2)C1 (racemic)	3%	30%	–	–
CN[C@H]1CCN[C@H]([C@H]2COC(c3ccccc3)(c3ccccc3)O2)C1 (racemic)	30%	37%	–	–
CN[C@@H]1CCN(C(=O)OCc2ccccc2)[C@H]([C@@H]2COC(c3ccccc3)(c3ccccc3)O2)C1 (racemic)	7%	28%	–	–
O[C@@H]1CCN[C@H]([C@@H]2COC(c3ccccc3)(c3ccccc3)O2)C1 (racemic)	0%	0%	–	–
CO[C@@H]1CCN[C@H]([C@H]2COC(c3ccccc3)(c3ccccc3)O2)C1 (racemic)	49%	5%	–	–
N[C@@H]1CCN[C@H]([C@@H]2COC(c3ccccc3)(c3ccccc3)O2)C1 (racemic)	26%	15%	–	–
CO[C@H]1CCN[C@H]([C@H]2COC(c3ccccc3)(c3ccccc3)O2)C1 (racemic)	–	9%	–	6.01
O=C(OCc1ccccc1)N1CC[C@H](NCc2ccccc2)C[C@H]1[C@@H]1COC(c2ccccc2)(c2ccccc2)O1 (racemic)	30%	–	442 nM	–
O[C@H]1CCN[C@H]([C@H]2COC(c3ccccc3)(c3ccccc3)O2)C1 (racemic)	–	13%	–	7.36
O=C1CCN[C@H]([C@H]2COC(c3ccccc3)(c3ccccc3)O2)C1 (racemic)	–	–	–	6.33
CN[C@H]1CCN(C(=O)OCc2ccccc2)[C@H]([C@H]2COC(c3ccccc3)(c3ccccc3)O2)C1 (racemic)	6%	35%	–	–
CO[C@@H]1CCN[C@H]([C@@H]2COC(c3ccccc3)(c3ccccc3)O2)C1 (racemic)	37%	18%	–	–
